Results published in patent publication US12258360B2, “Compositions and methods for treatment of anticancer-drug resistant cancers” (THE GEORGE WASHINGTON UNIVERSITY, priority 2020, dated 2025).

Tests used:
IGROV1 xenograft = type: in vivo, mice
Protocol: (§1) To evaluate the potency of And-1 inhibitors in vivo, IGROV1 or MCF7 cells were subcutaneously implanted into nude mice to form ovarian or breast tumors, respectively. In brief, 5-6 week-old female BALB/c athymic nude mice (CByJ.Cg-Foxn1nu/J, weighting 20-25 grams) were inoculated subcutaneously by injecting the OC cells, cisplatin resistant OC cells or breast cancer cells suspended in 100 μl ice-cold Matrigel/PBS (1:1, V:V; 5×10^6/mouse) into the dorsal flank of each mouse. When the average tumor volume reached 100-150 mm^3, the mice were randomized into subsequent experiment groups. For tumors treated with CH3 only, CH3 was given at 0 mg/kg, 20 mg/kg and 40 mg/kg via intraperitoneal injection twice a week for three weeks. […] The relative tumor volumes were calculated using the formula: a×(b^2)/2, for which a and b represented the longest and shortest diameters, respectively. During the drug treatment, the tumor volume and body weight were measured. Tumor samples were collected 4 days after final administration of the drug.

MCF7 xenograft = type: in vivo, mice
Protocol: as §1

NCI 60 tumor cell lines = NCI 60 tumor cell lines growth assay; type: cell-based
Protocol: To test this hypothesis, inhibition of CH3 on cancer cells was evaluated by using NCI 60 tumor cell lines.

And-1 = target: T1, And-1 (Homo sapiens, UniProt O75717); test: cellular thermal shift assay; type: binding; design: endogenous in cells; host or cells: IGROV1 CR; settings: cells incubated 8 hours, compared to DMSO
T1 sequence (O75717 1-1129): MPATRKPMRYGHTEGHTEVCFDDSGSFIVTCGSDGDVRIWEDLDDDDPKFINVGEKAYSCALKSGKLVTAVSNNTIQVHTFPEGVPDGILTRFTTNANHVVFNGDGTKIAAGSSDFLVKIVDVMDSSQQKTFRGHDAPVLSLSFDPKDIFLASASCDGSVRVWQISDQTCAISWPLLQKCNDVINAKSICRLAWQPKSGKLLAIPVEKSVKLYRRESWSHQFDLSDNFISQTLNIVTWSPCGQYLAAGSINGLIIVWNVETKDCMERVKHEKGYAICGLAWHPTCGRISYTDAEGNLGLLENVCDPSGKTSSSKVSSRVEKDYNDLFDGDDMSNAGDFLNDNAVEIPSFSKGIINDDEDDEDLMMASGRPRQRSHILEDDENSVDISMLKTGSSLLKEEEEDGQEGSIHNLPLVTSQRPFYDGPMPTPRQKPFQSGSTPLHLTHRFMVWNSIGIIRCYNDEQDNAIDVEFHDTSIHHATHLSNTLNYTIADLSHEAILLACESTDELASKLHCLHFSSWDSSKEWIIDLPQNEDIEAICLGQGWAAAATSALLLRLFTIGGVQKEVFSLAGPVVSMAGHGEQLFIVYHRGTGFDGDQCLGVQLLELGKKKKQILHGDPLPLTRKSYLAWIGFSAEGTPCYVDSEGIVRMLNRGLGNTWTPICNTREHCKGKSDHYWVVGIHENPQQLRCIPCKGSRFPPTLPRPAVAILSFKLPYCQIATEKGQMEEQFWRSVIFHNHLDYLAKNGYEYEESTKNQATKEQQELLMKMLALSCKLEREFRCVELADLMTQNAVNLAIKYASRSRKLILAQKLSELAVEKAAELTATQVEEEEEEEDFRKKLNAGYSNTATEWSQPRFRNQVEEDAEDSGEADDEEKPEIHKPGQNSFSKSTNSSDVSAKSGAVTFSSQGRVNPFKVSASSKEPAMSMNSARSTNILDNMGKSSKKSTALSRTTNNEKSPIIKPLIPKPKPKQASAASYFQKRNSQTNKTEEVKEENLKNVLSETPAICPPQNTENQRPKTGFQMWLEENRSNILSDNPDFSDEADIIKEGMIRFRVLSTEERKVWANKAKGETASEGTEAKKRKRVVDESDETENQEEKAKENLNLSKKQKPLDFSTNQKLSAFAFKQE
Protocol: To explore whether And-1 inhibitors directly bind to And-1, cellular thermal shift assays were performed in which a small molecule binds to a protein resulting in thermal stabilization of the protein. Briefly, cells were incubated with MG132 (10 μM), DHS, CH3, CH10 or DMSO for 8 hours. After washing with ice-cold PBS (suppled with Protease Inhibitor Cocktail), cells were aliquoted into PCR tubes (100 μL each) and then incubated at different temperatures (from 25° C. to 71° C.) for 4 minutes. After the cells were frozen and thawed twice using liquid nitrogen, proteins were isolated from the cells after centrifugation and incubated at 70° C. for 10 minutes for analysis by western blotting.

Structure (SMILES): OB1OCc2cc(/C=C/c3ccc(Cl)c(Cl)c3)ccc21 [CH3]
- And-1 expression in tumor (IHC) (IGROV1 xenograft; IGROV1 xenograft): inhibited And-1 expression
- apoptosis in tumor (cleaved caspase-3 IHC) (IGROV1 xenograft; IGROV1 xenograft): induced apoptosis in tumor
- tumor growth (IGROV1 xenograft; IGROV1 xenograft, 20 or 40 mg/kg intraperitoneally, three weeks): significantly reduced tumor growth
- systemic toxicity (body weight, H&E staining of heart, liver, kidney and lung) (IGROV1 xenograft; mouse, in vivo): systemic toxicity or obvious side effects were not observed
- And-1 expression in tumor (IHC) (MCF7 xenograft; MCF7 xenograft): inhibited And-1 expression
- apoptosis in tumor (cleaved caspase-3 IHC) (MCF7 xenograft; MCF7 xenograft): induced apoptosis in tumor
- tumor growth (MCF7 xenograft; MCF7 xenograft, 20 or 40 mg/kg intraperitoneally, three weeks): significantly reduced tumor growth
- systemic toxicity (body weight, H&E staining of heart, liver, kidney and lung) (MCF7 xenograft; mouse, in vivo): systemic toxicity or obvious side effects were not observed
- cancer cell growth inhibition (NCI 60 tumor cell lines; 0.01-100 μM, 60 tumor cell lines): inhibited cancer cell growth in all 60 tumor cell lines in a dose dependent manner
- mean growth percentage (NCI 60 tumor cell lines; one dose assay, 10 μM, against 60 tumor cell lines): 1.84%
- thermal stabilization of And-1 protein at higher temperatures (And-1): stabilized
